Test [1] deals with T1, human serum albumin (HSA) (Homo sapiens, UniProt P02768).
T1 construct: purchased
In words: Albumin binding by tryptophan fluorescence emission quenching. The conditions noted are these: for K(HSA), HSA-binding constant / kq(HSA), HSA-quenching constant: HSA 3 μM; for K(HSA), HSA-binding constant: buffer pH 7.0, Scatchard equation; for kq(HSA), HSA-quenching constant: buffer pH 7.0, λexc 295 nm, Stern–Volmer, τ0 = 10^–8 s; for HSA fluorescence, % of the initial fluorescence intensity (I/Io): λem,max = 351 nm, final value of titration (Figure S10). In outline:
(§1)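 Compound binding to serum albumin monitored by quenching of albumin tryptophan fluorescence emission. Quenching constants (kq) derived from Stern–Volmer equation; binding constants (K) from Scatchard equation.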

Test [2] has as its target T2, bovine serum albumin (BSA) (Bos taurus, UniProt P02769).
T2 construct: purchased
The test is described as above. The conditions noted are these: for K(BSA), BSA-binding constant / kq(BSA), BSA-quenching constant: BSA 3 μM; for K(BSA), BSA-binding constant: buffer pH 7.0, Scatchard equation; for kq(BSA), BSA-quenching constant: buffer pH 7.0, λexc 295 nm, Stern–Volmer, τ0 = 10^–8 s; for BSA fluorescence, % of the initial fluorescence intensity (I/Io): λem,max = 342 nm, final value of titration (Figure S11). In short, it runs like this:
as §1

In test [3] the test system is Bacillus subtilis ATCC 6633. In words: Antimicrobial activity, MIC determination. In kind it is cell-based. Conditions: B. subtilis; 24-h incubation, 37°C. In short, it runs like this: (§2)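 Broth microdilution MIC in Mueller–Hinton broth, inoculum 0.5 McFarland, compounds added from DMSO working solutions at 2:98. After 24 h (37°C; X. campestris at 28°C), MIC is the lowest concentration inhibiting visible growth, by OD600 turbidity, in at least two of triplicate cultures.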

Test [4] relates to Staphylococcus aureus ATCC 6538. In words: Antimicrobial activity, MIC determination. The conditions noted are these: S. aureus; 24-h incubation, 37°C. It is filed as cell-based.
Test [5] concerns Xanthomonas campestris ATCC 1395. Put plainly: Antimicrobial activity, MIC determination. It is filed as cell-based. The conditions noted are these: X. campestris; 24-h incubation, 28°C. In outline: as §2

The source of these data is paper PMC9144902, “Metal(II) Complexes of the Fluoroquinolone Fleroxacin: Synthesis, Characterization and Biological Profile” (Pharmaceutics, 2022).

Where only a bound is given, the exact number is not on record here.

T2 sequence (P02769 25-607): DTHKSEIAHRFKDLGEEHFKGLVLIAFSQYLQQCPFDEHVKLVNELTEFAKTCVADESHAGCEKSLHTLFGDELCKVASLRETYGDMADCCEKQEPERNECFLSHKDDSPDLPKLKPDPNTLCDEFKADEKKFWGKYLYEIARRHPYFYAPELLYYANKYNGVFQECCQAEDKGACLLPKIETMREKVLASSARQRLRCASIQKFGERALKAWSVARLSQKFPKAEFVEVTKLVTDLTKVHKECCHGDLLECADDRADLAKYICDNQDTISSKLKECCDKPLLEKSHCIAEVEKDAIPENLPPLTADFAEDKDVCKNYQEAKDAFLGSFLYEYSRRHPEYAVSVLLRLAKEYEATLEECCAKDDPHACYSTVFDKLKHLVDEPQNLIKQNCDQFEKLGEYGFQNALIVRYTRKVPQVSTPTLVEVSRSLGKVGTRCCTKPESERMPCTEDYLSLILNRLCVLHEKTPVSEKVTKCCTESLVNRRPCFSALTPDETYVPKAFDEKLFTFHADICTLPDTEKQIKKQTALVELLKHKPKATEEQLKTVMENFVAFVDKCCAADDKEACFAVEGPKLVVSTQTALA
T1 sequence (P02768 25-609): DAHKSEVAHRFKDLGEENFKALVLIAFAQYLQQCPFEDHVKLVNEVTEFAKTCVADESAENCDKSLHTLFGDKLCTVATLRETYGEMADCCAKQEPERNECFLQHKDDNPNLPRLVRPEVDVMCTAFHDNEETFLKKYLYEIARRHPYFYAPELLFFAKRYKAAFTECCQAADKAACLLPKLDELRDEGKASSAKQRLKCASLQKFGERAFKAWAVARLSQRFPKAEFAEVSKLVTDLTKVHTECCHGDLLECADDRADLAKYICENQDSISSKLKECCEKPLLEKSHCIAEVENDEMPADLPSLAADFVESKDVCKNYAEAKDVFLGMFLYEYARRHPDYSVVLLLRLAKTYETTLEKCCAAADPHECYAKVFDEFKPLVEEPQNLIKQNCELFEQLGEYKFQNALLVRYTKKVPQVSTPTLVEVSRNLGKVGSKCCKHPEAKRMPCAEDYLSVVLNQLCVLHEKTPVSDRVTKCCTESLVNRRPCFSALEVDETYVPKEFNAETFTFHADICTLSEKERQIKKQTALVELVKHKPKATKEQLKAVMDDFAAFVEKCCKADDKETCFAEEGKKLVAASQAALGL

As a reminder, the MIC is the least concentration at which growth counts as inhibited. The low end stands for a more susceptible organism, the high end for a less susceptible organism. Regarding `CN1CCN(c2c(F)cc3c(=O)c(C(=O)[O-])cn(CCF)c3c2F)CC1.[Cl-].[Cu+2].c1ccc(-c2ccccn2)nc1` [complex 6, [Cu(flrx)(bipy)Cl]], in test [1], the “K(HSA), HSA-binding constant” value is 1.02(±0.03) × 10^5 M^−1; the “kq(HSA), HSA-quenching constant” value was 6.08(±0.06) × 10^12 M^−1s^−1; the “HSA fluorescence, % of the initial fluorescence intensity (I/Io)” value (“HSA fluorescence, %” below) came to 48.5%. Besides, in test [2], the “K(BSA), BSA-binding constant” value is on record as 6.12(±0.33) × 10^4 M^−1; the “kq(BSA), BSA-quenching constant” value was 1.59(±0.07) × 10^13 M^−1s^−1; the “BSA fluorescence, % of the initial fluorescence intensity (I/Io)” value (shortened to “BSA fluorescence, %”) is on record as 25.7%. Moreover, in test [3], the MIC was 8 µg/mL and the “MIC (values in parentheses)” value was determined as 12.8 µM. In addition, in test [4], the MIC worked out at 4 µg/mL and the “MIC (values in parentheses)” value was 6.4 µM. In addition, in test [5], the MIC is 8 µg/mL and the “MIC (values in parentheses)” value amounted to 12.8 µM.

With `CN1CCN(c2c(F)cc3c(=O)c(C(=O)[O-])cn(CCF)c3c2F)CC1.CN1CCN(c2c(F)cc3c(=O)c(C(=O)[O-])cn(CCF)c3c2F)CC1.CO.CO.[Ni+2]` [complex 5, [Ni(flrx)2(MeOH)2]], in test [1], the “K(HSA), HSA-binding constant” value is 5.76(±0.28) × 10^4 M^−1; the “kq(HSA), HSA-quenching constant” value was 1.09(±0.03) × 10^13 M^−1s^−1; the “HSA fluorescence, %” value was found to be 34.1%. In test [2], the “K(BSA), BSA-binding constant” value is reported as 1.75(±0.07) × 10^5 M^−1; the “kq(BSA), BSA-quenching constant” value is 2.37(±0.13) × 10^13 M^−1s^−1; the “BSA fluorescence, %” value stood at 19.2%. For the same compound, in test [3], the MIC was found to be 4 µg/mL and the “MIC (values in parentheses)” value is 4.6 µM. Also, in test [4], the MIC was found to be 4 µg/mL and the “MIC (values in parentheses)” value was 4.6 µM. Besides, in test [5], the MIC turned out to be 16 µg/mL and the “MIC (values in parentheses)” value is 18.6 µM.

Take `CN1CCN(c2c(F)cc3c(=O)c(C(=O)[O-])cn(CCF)c3c2F)CC1.[Cl-].[Cu+2].c1ccc(Nc2ccccn2)nc1` [complex 7, [Cu(flrx)(bipyam)Cl]]: in test [1], the “K(HSA), HSA-binding constant” value is 1.31(±0.05) × 10^5 M^−1; the “kq(HSA), HSA-quenching constant” value is 5.57(±0.18) × 10^12 M^−1s^−1; the “HSA fluorescence, %” value worked out at 49.3%. Also, in test [2], the “K(BSA), BSA-binding constant” value is listed as 1.26(±0.05)×10^5 M^−1; the “kq(BSA), BSA-quenching constant” value was 1.56(±0.04) × 10^13 M^−1s^−1; the “BSA fluorescence, %” value was determined as 26.6%. Moreover, in test [3], the MIC was above 16 µg/mL and the “MIC (values in parentheses)” value is above 25.0 µM. In test [4], the MIC was above 16 µg/mL and the “MIC (values in parentheses)” value was above 25.0 µM. Besides, in test [5], the MIC is above 32 µg/mL and the “MIC (values in parentheses)” value is above 50.0 µM.

As for `CN1CCN(c2c(F)cc3c(=O)c(C(=O)[O-])cn(CCF)c3c2F)CC1.[Cl-].[Cu+2].c1cnc2c(c1)ccc1cccnc12` [complex 8, [Cu(flrx)(phen)Cl]], in test [1], the “K(HSA), HSA-binding constant” value is on record as 3.45(±0.14) × 10^4 M^−1; the “kq(HSA), HSA-quenching constant” value is reported as 4.08(±0.13) × 10^12 M^−1s^−1; the “HSA fluorescence, %” value is on record as 56.5%. In test [2], the “K(BSA), BSA-binding constant” value is recorded as 5.03(±0.22) × 10^4 M^−1; the “kq(BSA), BSA-quenching constant” value is given as 1.04(±0.03) × 10^13 M^−1s^−1; the “BSA fluorescence, %” value is on record as 34.4%. In addition, in test [3], the MIC turned out to be 8 µg/mL and the “MIC (values in parentheses)” value turned out to be 12.3 µM. Besides, in test [4], the MIC came to 8 µg/mL and the “MIC (values in parentheses)” value worked out at 12.3 µM. For the same compound, in test [5], the MIC was determined as 8 µg/mL and the “MIC (values in parentheses)” value amounted to 12.3 µM.
